From US7994196B2, “Indazole compound and pharmaceutical use thereof” (Mitsubishi Tanabe Pharma Corporation, priority 2004, dated 2011) come the findings set out here.

For this assay, the system named is MMP-9 production. The assay can be described thus: Determination of MMP-9 Production Inhibitory Activity (PMA-stimulated HEC3 cells, gelatin zymography). The assay is classed as cell-based. Particulars: Endothelial cell, immortalized human vascular endothelial cells HEC3, PMA 10^-7 M stimulation, test substance at 10, 2, 0.4 and 0.08 μM, read-out: IC50 (MMP-9 production inhibitory rate). As for the experimental part:
Immortalized human vascular endothelial cells HEC3 (supplied by Prof. Iijima of Nagoya University) were subcultured in RPMI1640 medium (Sigma Ltd.) containing 10% fetal calf serum.
The HEC3 cells (5×10^4 cells/well) were plated on a 24-well plate, and cultured in RPMI1640 medium containing 10% fetal calf serum for 24 hr. Each well was washed once with serum-free RPMI1640 medium. Then, RPMI1640 medium (250 μl/well) containing 0.05% fetal calf serum was added to each well, and the cells were further cultured for 2 hr.
The supernatant was removed, and the test substances (Example compounds shown in Table 1) diluted to various concentrations were added and incubated for 1 hr in 0.05% serum-containing RPMI1640 medium and the supernatant was removed again. A medium containing a test substance having the same concentration as in the pre-treatment and PMA (10^−7 M), which is a stimulant, was added at 250 μl/well, and the cells were further cultured for 24 hr.
After completion of the culture, water (50 μl) and 25 μl of SDS buffer (240 mM Tris-HCl (pH 6.8), 8% SDS, 40% glycerol) were added to the culture supernatant (25 μl), and the mixture (10 μl) was electrophoresed on a 7.5% polyacrylamide gel containing 0.1% gelatin.
After the electrophoresis, the gel was washed with Tris-HCl buffer (pH 7.5) containing 0.5% Triton X-100 (Sigma Ltd.) for 1 hr. The gel was immersed in an activation buffer (150 mM NaCl, 50 mM Tris-HCl (pH 7.5), 10 mM CaCl2) at 37° C. for 18 hr to activate MMP-9, and then stained with CBB. The obtained MMP-9 band was converted to numerical values by a densitometer (ATTO. Ltd.).
The MMP-9 production inhibitory rate by the test substance was calculated by the following equation. MMP-9 production inhibitory rate=100−100×{(test substance addition value−non-stimulation value)/(PMA stimulation value−non-stimulation value)}
The MMP-9 production inhibitory rates of the test substance at 10, 2, 0.4 and 0.08 μM were calculated, and IC50 value of the each test substance was determined using an analysis soft (RegExcel).

SMILES strings stand for the structures. Like-named read-outs stand apart in the source and are kept apart here.

Consider `Cc1cc(F)cc(C2(O)CCN(C(=O)Nc3n[nH]c4ccccc34)CC2)c1` [Ex. 138, 4-(3-fluoro-5-methylphenyl)-4-hydroxy-1-piperidinecarboxylic acid (1H-indazol-3-yl)amide], for which, for the setting “Homo sapiens, 24 h”, the half-maximal inhibitory concentration (IC50) (usually the concentration that gives 50% inhibition) came out at 100 nM.

As to `O=C(Nc1n[nH]c2ccccc12)N1CCN(c2ccc(Cl)c(C(F)(F)F)c2)CC1` [Ex. 93, 4-[4-chloro-3-(trifluoromethyl)phenyl]-1-piperazinecarboxylic acid (1H-indazol-3-yl)amide], the IC50 (Homo sapiens, 24 h) was 170 nM.

Consider `O=C(Nc1n[nH]c2ccccc12)N1CCC(O)(c2ccc(Cl)c(C(F)(F)F)c2)CC1` [Ex. 1], for which the concentration for half-maximal inhibition (IC50) (Homo sapiens, 24 h) was 790 nM. On to `O=C(Nc1n[nH]c2ccccc12)N1CCN(c2cc(F)cc(C(F)(F)F)c2)CC1` [Ex. 97, 4-[3-fluoro-5-(trifluoromethyl)phenyl]-1-piperazinecarboxylic acid (1H-indazol-3-yl)amide], for which the IC50 (Homo sapiens, 24 h) worked out at 210 nM. In the case of `O=C(Nc1n[nH]c2ccccc12)N1CCc2c([nH]c3cc(Cl)c(F)cc23)C1` [Ex. 82, 7-chloro-6-fluoro-1,3,4,9-tetrahydro-β-carboline-2-carboxylic acid (1H-indazol-3-yl)amide], the IC50 (Homo sapiens, 24 h) is 100 nM.

Turning to `O=C(Nc1n[nH]c2ccccc12)N1CCc2c([nH]c3cccc(F)c23)C1` [Ex. 77], the IC50 (Homo sapiens, 24 h) worked out at 50 nM. With `O=C(Nc1n[nH]c2ccccc12)N1CCC(O)(c2cc(F)cc(Cl)c2)CC1` [Ex. 22], the IC50 (Homo sapiens, 24 h) amounted to 330 nM. For the compound `Cc1ccc(C2(O)CCN(C(=O)Nc3n[nH]c4ccccc34)CC2)cc1C` [Ex. 142, 4-(3,4-dimethylphenyl)-4-hydroxy-1-piperidinecarboxylic acid (1H-indazol-3-yl)amide], for the setting “Homo sapiens, 24 h”, the IC50 came out at 400 nM. Turning to `N#CC1(c2cccc(C(F)(F)F)c2)CCN(C(=O)Nc2n[nH]c3ccccc23)CC1` [Ex. 42], the concentration for half-maximal inhibition (IC50) (24 hr) worked out at 220 nM. In the case of `CCc1cccc(C2(O)CCN(C(=O)Nc3n[nH]c4ccccc34)CC2)c1` [Ex. 31], the IC50 (Homo sapiens, 24 h) worked out at 550 nM. As for `O=C(Nc1n[nH]c2ccccc12)N1CCC(O)(c2ccc(Cl)c(Cl)c2)CC1` [Ex. 21], under “Homo sapiens, 24 h”, the IC50 was determined as 380 nM.

With `O=C(Nc1n[nH]c2ccccc12)N1CCC(O)(c2cccc(Cl)c2)CC1` [Ex. 24], under “Homo sapiens, 24 h”, the IC50 was 210 nM. On the same count and under the same terms, next, `Cc1ccsc1C1=CCN(C(=O)Nc2n[nH]c3ccccc23)CC1` [Ex. 59]: 210 nM. Same read-out and setting: the same measure for `O=C(Nc1n[nH]c2ccccc12)N1CC=C(c2cccc(F)c2)CC1` [Ex. 55]: 130 nM; for `O=C(Nc1n[nH]c2ccccc12)N1CCC(O)(c2ccc(Cl)cc2)CC1` [Ex. 4]: 400 nM; for `Cc1ccc(F)cc1C1(O)CCN(C(=O)Nc2n[nH]c3ccccc23)CC1` [Ex. 135, 4-(5-fluoro-2-methylphenyl)-4-hydroxy-1-piperidinecarboxylic acid (1H-indazol-3-yl)amide]: 490 nM. Turning to `N#CC1(c2ccc(Br)s2)CCN(C(=O)Nc2n[nH]c3ccccc23)CC1` [Ex. 46], where the note is “Homo sapiens, 24 h”, the IC50 was determined as 550 nM.

As for `Cc1cc(C2(O)CCN(C(=O)Nc3n[nH]c4ccccc34)CC2)ccc1F` [Ex. 136, 4-(4-fluoro-3-methylphenyl)-4-hydroxy-1-piperidinecarboxylic acid (1H-indazol-3-yl)amide], the half-inhibitory concentration (IC50) (Homo sapiens, 24 h) amounted to 410 nM. Regarding `O=C(Nc1n[nH]c2ccccc12)N1CCc2c([nH]c3ccc(C(F)(F)F)cc23)C1` [Ex. 69], under “Homo sapiens, 24 h”, the IC50 was found to be 160 nM.

With `O=C(Nc1n[nH]c2ccccc12)N1CCc2c([nH]c3ccc(Cl)cc23)C1` [Ex. 72], the IC50 (Homo sapiens, 24 h) is 100 nM.

Turning to `O=C(Nc1n[nH]c2ccccc12)N1CCN(c2ccc(Cl)c(Cl)c2)CC1` [Ex. 98, 4-(3,4-dichlorophenyl)-1-piperazinecarboxylic acid (1H-indazol-3-yl)amide], the half-maximal inhibitory concentration (IC50) (Homo sapiens, 24 h) was determined as 220 nM. For the compound `COc1ccc(C2=CCN(C(=O)Nc3n[nH]c4ccccc34)CC2)cc1OC` [Ex. 62], under “Homo sapiens, 24 h”, the IC50 amounted to 690 nM. On to `COc1ccc(N2CCN(C(=O)Nc3n[nH]c4ccccc34)CC2)cc1C(F)(F)F` [Ex. 95, 4-[4-methoxy-3-(trifluoromethyl)phenyl]-1-piperazinecarboxylic acid (1H-indazol-3-yl)amide], for which the half-inhibitory concentration (IC50) (Homo sapiens, 24 h) turned out to be 510 nM.

`O=C(Nc1n[nH]c2ccccc12)N1CCc2c([nH]c3ccc(O)cc23)C1` [Ex. 74]: the IC50 (Homo sapiens, 24 h) amounted to 150 nM. Same read-out and setting: the same measure for `O=C(Nc1n[nH]c2ccccc12)N1CC=C(c2ccc(F)c(Cl)c2)CC1` [Ex. 53]: 240 nM; for `O=C(Nc1n[nH]c2ccccc12)N1CCC(O)(c2ccc3c(c2)OCO3)CC1` [Ex. 27]: 940 nM; for `Cc1ccc(C(F)(F)F)cc1C1(O)CCN(C(=O)Nc2n[nH]c3ccccc23)CC1` [Ex. 141, 4-hydroxy-4-[2-methyl-5-(trifluoromethyl)phenyl]-1-piperidinecarboxylic acid (1H-indazol-3-yl)amide]: 320 nM. As to `O=C(Nc1n[nH]c2ccccc12)N1CCc2c([nH]c3cc(Cl)c(C(F)(F)F)cc23)C1` [Ex. 83, 7-chloro-6-(trifluoromethyl)-1,3,4,9-tetrahydro-β-carboline-2-carboxylic acid (1H-indazol-3-yl)amide], the IC50 (Homo sapiens, 24 h) is 420 nM. With `COc1ccc2[nH]c3c(c2c1)CCN(C(=O)Nc1n[nH]c2ccccc12)C3` [Ex. 73], the IC50 (Homo sapiens, 24 h) worked out at 90 nM.

On to `Cc1ccc(F)c(C2(O)CCN(C(=O)Nc3n[nH]c4ccccc34)CC2)c1` [Ex. 130, 4-(2-fluoro-5-methylphenyl)-4-hydroxy-1-piperidinecarboxylic acid (1H-indazol-3-yl)amide], for which the IC50 (Homo sapiens, 24 h) is 620 nM. The same measure, in the same setting: next, `O=C(Nc1n[nH]c2ccccc12)N1CCC(O)(c2ccc(F)c(Cl)c2)CC1` [Ex. 15]: 450 nM. Take `N#CC1(c2cc(F)cc(F)c2)CCN(C(=O)Nc2n[nH]c3ccccc23)CC1` [Ex. 47]: the IC50 (24 hr) was 350 nM. For the compound `O=C(Nc1n[nH]c2ccccc12)N1CCc2c([nH]c3ccccc23)C1` [Ex. 64], the IC50 (Homo sapiens, 24 h) turned out to be 120 nM. As to `O=C(Nc1n[nH]c2ccccc12)N1CC=C(c2ccccc2F)CC1` [Ex. 52], the IC50 (Homo sapiens, 24 h) is 320 nM. As to `CC1CN(C(=O)Nc2n[nH]c3ccccc23)CCN1c1ccc(Cl)c(C(F)(F)F)c1` (stereo not shown) [Ex. 117], the IC50 (Homo sapiens, 24 h) came out at 930 nM. As to `Cc1c(Cl)cccc1C1(O)CCN(C(=O)Nc2n[nH]c3ccccc23)CC1` [Ex. 131, 4-(3-chloro-2-methylphenyl)-4-hydroxy-1-piperidinecarboxylic acid (1H-indazol-3-yl)amide], the IC50 (Homo sapiens, 24 h) came out at 440 nM.

Turning to `N#CC1(c2ccc(Br)cc2Cl)CCN(C(=O)Nc2n[nH]c3ccccc23)CC1` [Ex. 48], under “24 hr”, the IC50 was 770 nM. For the compound `O=C(Nc1n[nH]c2ccccc12)N1CCC(O)(c2cc(C(F)(F)F)cc(C(F)(F)F)c2)CC1` [Ex. 34], the IC50 (Homo sapiens, 24 h) came to 430 nM. For `Cc1cccc(C2(O)CCN(C(=O)Nc3n[nH]c4ccccc34)CC2)c1` [Ex. 28], the IC50 (Homo sapiens, 24 h) amounted to 360 nM. On the same count and under the same terms, next, `O=C(Nc1n[nH]c2ccccc12)N1CC=C(c2ccccc2)CC1` [Ex. 49]: 260 nM; `Cc1ccc(C)c(C2(O)CCN(C(=O)Nc3n[nH]c4ccccc34)CC2)c1` [Ex. 139, 4-(2,5-dimethylphenyl)-4-hydroxy-1-piperidinecarboxylic acid (1H-indazol-3-yl)amide]: 450 nM. Take `CSc1cccc(C2(O)CCN(C(=O)Nc3n[nH]c4ccccc34)CC2)c1` [Ex. 30]: for the setting “Homo sapiens, 24 h”, the IC50 came out at 300 nM. As to `O=C(Nc1n[nH]c2ccccc12)N1CC=C(c2cccc(F)c2F)CC1` [Ex. 56], the 50% inhibitory concentration (IC50) (Homo sapiens, 24 h) was 230 nM. In the case of `Cc1c(C(F)(F)F)cccc1C1(O)CCN(C(=O)Nc2n[nH]c3ccccc23)CC1` [Ex. 140, 4-hydroxy-4-[2-methyl-3-(trifluoromethyl)phenyl]-1-piperidinecarboxylic acid (1H-indazol-3-yl)amide], the IC50 (Homo sapiens, 24 h) was 620 nM.

In the case of `O=C(Nc1n[nH]c2ccccc12)N1CCC(O)(c2cc(C(F)(F)F)ccc2F)CC1` [Ex. 35], the IC50 (Homo sapiens, 24 h) came to 720 nM. Regarding `O=C(Nc1n[nH]c2ccccc12)N1CCC(O)(c2cc(C(F)(F)F)ccc2Cl)CC1` [Ex. 36], the IC50 (Homo sapiens, 24 h) is 540 nM. Turning to `N#Cc1cccc(C2(O)CCN(C(=O)Nc3n[nH]c4ccccc34)CC2)c1` [Ex. 29], the IC50 (Homo sapiens, 24 h) was determined as 910 nM.

In the case of `O=C(Nc1n[nH]c2ccccc12)N1CCC(F)(c2ccc(Cl)c(C(F)(F)F)c2)CC1` [Ex. 123, 4-[4-chloro-3-(trifluoromethyl)phenyl]-4-fluoropiperidine-1-carboxylic acid (1H-indazol-3-yl)amide], under “Homo sapiens, 24 h”, the 50% inhibitory concentration (IC50) worked out at 730 nM. For `O=C(Nc1n[nH]c2ccccc12)N1CCc2c([nH]c3cc(C(F)(F)F)ccc23)C1` [Ex. 76], the IC50 (Homo sapiens, 24 h) is 240 nM.
